# ChEMBL document CHEMBL3885881, “DrugMatrix”
# Species on record: Rattus norvegicus
# Assay: DrugMatrix - Regimen: Daily Repeat
# Type: toxicity, organism-based, Sprague-Dawley
# Design: regimen Daily Repeat, gender Male, age 6-8 weeks
# Details: in vivo, po, route oral GAVAGE; for ALANINE AMINOTRANSFERASE / ALBUMIN / ALKALINE PHOSPHATASE / ASPARTATE AMINOTRANSFERASE / BLOOD UREA NITROGEN / CARBON DIOXIDE / CHLORIDE / CHOLESTEROL / CREATININE / GLUCOSE / LIPASE / PHOSPHORUS / POTASSIUM / SODIUM / TOTAL BILIRUBIN / CREATINE PHOSPHOKINASE / LACTATE DEHYDROGENASE / TOTAL PROTEIN / URIC ACID: tissue Plasma; for ABSOLUTE BASOPHIL / ABSOLUTE EOSINOPHIL / ABSOLUTE LYMPHOCYTE / ABSOLUTE MONOCYTE / ABSOLUTE SEGMENTED NEUTROPHIL / BASOPHIL / EOSINOPHIL / ERYTHROCYTE COUNT / HEMATOCRIT / HEMOGLOBIN / LEUKOCYTE COUNT / LYMPHOCYTE / MEAN CORPUSCULAR HEMOGLOBIN / MEAN CORPUSCULAR HEMOGLOBIN CONCENTRATION / MEAN CORPUSCULAR VOLUME / MONOCYTE / NEUTROPHIL / NUCLEATED RED BLOOD CELLS / PLATELET COUNT: tissue Blood
# [1] = 7 mg/kg, 96 h, dose level M1, time 4 day, […]
# [2] = 12 mg/kg, 72 h, dose level High, time 3 day, vehicle 100 % WATER
# [3] = 12 mg/kg, 120 h, dose level High, time 5 day, vehicle 100 % WATER
# [4] = […], 72 h, dose 9.6 mg/Kg, dose level M1, time 3 day, vehicle 100 % WATER
# [5] = […], 120 h, dose 9.6 mg/Kg, dose level M1, time 5 day, vehicle 100 % WATER
structure (smiles),measurement,setting,value
COc1ccc2c(c1)c(CC(=O)O)c(C)n2C(=O)c1ccc(Cl)cc1 [INDOMETHACIN],ALANINE AMINOTRANSFERASE,[1],65.33 u/L
same,ALBUMIN,[1],2.67 G/DL
same,ALKALINE PHOSPHATASE,[1],487 u/L
same,ASPARTATE AMINOTRANSFERASE,[1],260 u/L
same,BLOOD UREA NITROGEN,[1],49.33 mg/dL
same,CARBON DIOXIDE,[1],24.3 mmol/L
same,CHLORIDE,[1],100 MEQ/L
same,CHOLESTEROL,[1],61.33 mg/dL
same,CREATININE,[1],0.3 mg/dL
same,GLUCOSE,[1],83 mg/dL
same,LIPASE,[1],296.67 u/L
same,PHOSPHORUS,[1],8.35 mg/dL
same,POTASSIUM,[1],5.5 MEQ/L
same,SODIUM,[1],138 MEQ/L
same,TOTAL BILIRUBIN,[1],0.09 mg/dL
same,ABSOLUTE BASOPHIL,[2],0 CELLS/uL
same,ABSOLUTE EOSINOPHIL,[2],64 CELLS/uL
same,ABSOLUTE LYMPHOCYTE,[2],7403 CELLS/uL
same,ABSOLUTE MONOCYTE,[2],98 CELLS/uL
same,ABSOLUTE SEGMENTED NEUTROPHIL,[2],468.33 CELLS/uL
same,BASOPHIL,[2],0%
same,EOSINOPHIL,[2],0.67%
same,ERYTHROCYTE COUNT,[2],2.59 x10E6/uL
same,HEMATOCRIT,[2],16.8%
same,HEMOGLOBIN,[2],6.83 G/DL
same,LEUKOCYTE COUNT,[2],8.03 x10E3/uL
same,LYMPHOCYTE,[2],93.33%
same,MEAN CORPUSCULAR HEMOGLOBIN,[2],26.43 pg
same,MEAN CORPUSCULAR HEMOGLOBIN CONCENTRATION,[2],40.53 G/DL
same,MEAN CORPUSCULAR VOLUME,[2],65.07 fL
same,MONOCYTE,[2],1%
same,NEUTROPHIL,[2],5%
same,NUCLEATED RED BLOOD CELLS,[2],2.67 /100WBC
same,PLATELET COUNT,[2],714.67 x10E3/uL
same,ALANINE AMINOTRANSFERASE,[2],21 u/L
same,ALBUMIN,[2],1.93 G/DL
same,ALKALINE PHOSPHATASE,[2],177.67 u/L
same,ASPARTATE AMINOTRANSFERASE,[2],46.33 u/L
same,BLOOD UREA NITROGEN,[2],15.33 mg/dL
same,CARBON DIOXIDE,[2],27 mmol/L
same,CHLORIDE,[2],104.33 MEQ/L
same,CHOLESTEROL,[2],69.67 mg/dL
same,CREATINE PHOSPHOKINASE,[2],148.33 u/L
same,CREATININE,[2],0.1 mg/dL
same,GLUCOSE,[2],146.67 mg/dL
same,LACTATE DEHYDROGENASE,[2],36 u/L
same,LIPASE,[2],8.33 u/L
same,PHOSPHORUS,[2],11 mg/dL
same,POTASSIUM,[2],4.8 MEQ/L
same,SODIUM,[2],143.4 MEQ/L
same,TOTAL BILIRUBIN,[2],0.1 mg/dL
same,TOTAL PROTEIN,[2],4.5 G/DL
same,URIC ACID,[2],0.53 mg/dL
same,ABSOLUTE BASOPHIL,[3],0 CELLS/uL
same,ABSOLUTE EOSINOPHIL,[3],18.5 CELLS/uL
same,ABSOLUTE LYMPHOCYTE,[3],2977 CELLS/uL
same,ABSOLUTE MONOCYTE,[3],109 CELLS/uL
same,ABSOLUTE SEGMENTED NEUTROPHIL,[3],495.5 CELLS/uL
same,BASOPHIL,[3],0%
same,EOSINOPHIL,[3],0.5%
same,ERYTHROCYTE COUNT,[3],3.63 x10E6/uL
same,HEMATOCRIT,[3],21.7%
same,HEMOGLOBIN,[3],9.1 G/DL
same,LEUKOCYTE COUNT,[3],3.6 x10E3/uL
same,LYMPHOCYTE,[3],83%
same,MEAN CORPUSCULAR HEMOGLOBIN,[3],25 pg
same,MEAN CORPUSCULAR HEMOGLOBIN CONCENTRATION,[3],41.8 G/DL
same,MEAN CORPUSCULAR VOLUME,[3],59.9 fL
same,MONOCYTE,[3],3%
same,NEUTROPHIL,[3],13.5%
same,NUCLEATED RED BLOOD CELLS,[3],1.5 /100WBC
same,PLATELET COUNT,[3],1098.5 x10E3/uL
same,ALANINE AMINOTRANSFERASE,[3],17 u/L
same,ALBUMIN,[3],2.1 G/DL
same,ALKALINE PHOSPHATASE,[3],366 u/L
same,ASPARTATE AMINOTRANSFERASE,[3],84 u/L
same,BLOOD UREA NITROGEN,[3],37 mg/dL
same,CARBON DIOXIDE,[3],26 mmol/L
same,CHLORIDE,[3],108 MEQ/L
same,CHOLESTEROL,[3],66 mg/dL
same,CREATINE PHOSPHOKINASE,[3],224 u/L
same,CREATININE,[3],0.1 mg/dL
same,GLUCOSE,[3],132.5 mg/dL
same,LACTATE DEHYDROGENASE,[3],83.5 u/L
same,LIPASE,[3],12.5 u/L
same,PHOSPHORUS,[3],11.15 mg/dL
same,POTASSIUM,[3],5.62 MEQ/L
same,SODIUM,[3],146.9 MEQ/L
same,TOTAL BILIRUBIN,[3],0.15 mg/dL
same,TOTAL PROTEIN,[3],4.7 G/DL
same,URIC ACID,[3],0.45 mg/dL
same,ABSOLUTE BASOPHIL,[4],0 CELLS/uL
same,ABSOLUTE EOSINOPHIL,[4],39.33 CELLS/uL
same,ABSOLUTE LYMPHOCYTE,[4],13009.33 CELLS/uL
same,ABSOLUTE MONOCYTE,[4],145.33 CELLS/uL
same,ABSOLUTE SEGMENTED NEUTROPHIL,[4],3406 CELLS/uL
same,BASOPHIL,[4],0%
same,EOSINOPHIL,[4],0.33%
same,ERYTHROCYTE COUNT,[4],4.19 x10E6/uL
same,HEMATOCRIT,[4],26.67%
same,HEMOGLOBIN,[4],10.63 G/DL
same,LEUKOCYTE COUNT,[4],16.6 x10E3/uL
same,LYMPHOCYTE,[4],78.33%
same,MEAN CORPUSCULAR HEMOGLOBIN,[4],25.53 pg
same,MEAN CORPUSCULAR HEMOGLOBIN CONCENTRATION,[4],40 G/DL
same,MEAN CORPUSCULAR VOLUME,[4],63.8 fL
same,MONOCYTE,[4],1%
same,NEUTROPHIL,[4],20.33%
same,NUCLEATED RED BLOOD CELLS,[4],0 /100WBC
same,PLATELET COUNT,[4],984.67 x10E3/uL
same,ALANINE AMINOTRANSFERASE,[4],50.33 u/L
same,ALBUMIN,[4],3.17 G/DL
same,ALKALINE PHOSPHATASE,[4],197.33 u/L
same,ASPARTATE AMINOTRANSFERASE,[4],77.33 u/L
same,BLOOD UREA NITROGEN,[4],13.33 mg/dL
same,CARBON DIOXIDE,[4],26 mmol/L
same,CHLORIDE,[4],102.67 MEQ/L
same,CHOLESTEROL,[4],72.33 mg/dL
same,CREATINE PHOSPHOKINASE,[4],564.67 u/L
same,CREATININE,[4],0.3 mg/dL
same,GLUCOSE,[4],162.33 mg/dL
same,LACTATE DEHYDROGENASE,[4],111.33 u/L
same,LIPASE,[4],11.67 u/L
same,PHOSPHORUS,[4],10.83 mg/dL
same,POTASSIUM,[4],5.33 MEQ/L
same,SODIUM,[4],141.3 MEQ/L
same,TOTAL BILIRUBIN,[4],0.1 mg/dL
same,TOTAL PROTEIN,[4],5.07 G/DL
same,URIC ACID,[4],1.23 mg/dL
same,ABSOLUTE BASOPHIL,[5],0 CELLS/uL
same,ABSOLUTE EOSINOPHIL,[5],0 CELLS/uL
same,ABSOLUTE LYMPHOCYTE,[5],4773 CELLS/uL
same,ABSOLUTE MONOCYTE,[5],34 CELLS/uL
same,ABSOLUTE SEGMENTED NEUTROPHIL,[5],943 CELLS/uL
same,BASOPHIL,[5],0%
same,EOSINOPHIL,[5],0%
same,ERYTHROCYTE COUNT,[5],4.33 x10E6/uL
same,HEMATOCRIT,[5],26.75%
same,HEMOGLOBIN,[5],10.7 G/DL
same,LEUKOCYTE COUNT,[5],5.75 x10E3/uL
same,LYMPHOCYTE,[5],81%
same,MEAN CORPUSCULAR HEMOGLOBIN,[5],24.7 pg
same,MEAN CORPUSCULAR HEMOGLOBIN CONCENTRATION,[5],40 G/DL
same,MEAN CORPUSCULAR VOLUME,[5],61.75 fL
same,MONOCYTE,[5],0.5%
same,NEUTROPHIL,[5],18.5%
same,NUCLEATED RED BLOOD CELLS,[5],1 /100WBC
same,PLATELET COUNT,[5],1266.5 x10E3/uL
same,ALANINE AMINOTRANSFERASE,[5],53.5 u/L
same,ALBUMIN,[5],3 G/DL
same,ALKALINE PHOSPHATASE,[5],320 u/L
same,ASPARTATE AMINOTRANSFERASE,[5],129 u/L
same,BLOOD UREA NITROGEN,[5],45 mg/dL
same,CARBON DIOXIDE,[5],33 mmol/L
same,CHLORIDE,[5],92.5 MEQ/L
same,CHOLESTEROL,[5],60.5 mg/dL
same,CREATINE PHOSPHOKINASE,[5],215 u/L
same,CREATININE,[5],0.32 mg/dL
same,GLUCOSE,[5],131 mg/dL
same,LACTATE DEHYDROGENASE,[5],112.5 u/L
same,LIPASE,[5],24.5 u/L
same,PHOSPHORUS,[5],11.45 mg/dL
same,POTASSIUM,[5],5.66 MEQ/L
same,SODIUM,[5],139.9 MEQ/L
same,TOTAL BILIRUBIN,[5],0.15 mg/dL
same,TOTAL PROTEIN,[5],5.8 G/DL
same,URIC ACID,[5],1.05 mg/dL
